Measurements from patent US20110245283A1, “Methods for predicting the response to statins” (priority 2009, published 2011).
Where two headings read alike, the source gives them in different places.

Assays:
[1] = tested on: LDL; conditions: cited from earlier work
[2] = tested on: LDL; test: Logistic regression models of attaining LDL goal: odds ratios for concurrent or prior drug doses; assay type: in vivo, patients; conditions: for OR: odds of goal
Experimental: G. Covariates for the multivariate model—The following list includes the predictors one or more of which may be tested in the multivariate models. • 1. AGE: (expressed in units of 10 years) at time that the new statin prescription was released • 2. GENDER, E. G., MALE: 1=yes, 0=no • 3. BMI (kg/M^2): last value before release date • 4. HBA1C (hemoglobin Alc): last value before release date • 5. PLDL: preceding LDL level expressed in e.g. 10 mg/dl units • 6. Statins • a. PLOVA: prior daily dose of lovastatin expressed in e.g. 10 mg units • b. […] For additional drugs: • a. AMIODOSE: amiodarone dose in mg/day • b. CARBDOSE: carbemazepine dose in mg/day • c. PIOGDOSE: pioglitazone dose expressed as number of 15 mg doses per day • d. […] METFDOSE: metformin dose expressed as number of 1000 mg doses per day • f. PHENDOSE: phenyloin dose in mg/day • g. RISPDOSE: risperidone dose in mg/day • h. ROSIDOSE: rosiglitazone dose in mg/day • i.
Body mass index (BMI) was chosen as a covariate of statin response because obese patients tend to consume a diet high in cholesterol. It was hypothesized that they would respond less well to statins because their hypercholesterolemia was more likely to be mediated by dietary indiscretion than excessive LDL synthesis. […] Metformin and the thiazolidinediones were chosen because they reduce LDL levels in diabetic patients through mechanisms that may or may not be affected by concurrent statin treatment. The remaining non-statin drugs were chosen because they are commonly used drugs that potentiate the effect of statins. They were selected by reviewing the official on-line VA pharmaceutical reference (Micromedex®) for major interactions mediated by impaired statin metabolism. […] The daily dose of the non-statin drug was calculated by the method described in Section B.
H. Assembling the predictor file—The patient identifier was used to link the new statin prescription type and dose, the preceding LDL above goal, and the type and dose of the previous statin (if any) with the patient's most recent HbA1c, most recent BMI, and the daily doses of 9 drugs with major statin interactions that were active at the time the new prescription was released.
The dependent variable was attainment of goal (LDL <100 mg/dl). […] Step selections were based upon the maximal likelihood method with α<0.15 to enter and ≧0.15 to remove.

[3] = tested on: LDL; test: Proportion of CAD patients attaining LDL goal (<100 mg/dl) on a statin dose; validation sets stratified by predicted probability; conditions: for Proportion of patients achieving goal: validation set; for Chance of success (reaching goal) of any dose choice: this study

Structure (SMILES): CC(C)c1nc(N(C)S(C)(=O)=O)nc(-c2ccc(F)cc2)c1/C=C/[C@@H](O)C[C@@H](O)CC(=O)O [Rosuva, rosuvastatin]
- Average LDL reduction ([1]; Dose 5 mg): 43%
- Average LDL reduction ([1]; Dose 10 mg): 50%
- Average LDL reduction ([1]; Dose 20 mg): 53%
- Average LDL reduction ([1]; Dose 40 mg): 62%

Structure (SMILES): CC(C)n1c(/C=C/C(O)CC(O)CC(=O)O)c(-c2ccc(F)cc2)c2ccccc21 (stereo not shown) [Fluva, fluvastatin]
- Average LDL reduction ([1]; Dose 20 mg): 17%
- Average LDL reduction ([1]; Dose 40 mg): 23%
- Average LDL reduction ([1]; Dose 80 mg): 33%

Structure (SMILES): CC(C)c1c(C(=O)Nc2ccccc2)c(-c2ccccc2)c(-c2ccc(F)cc2)n1CC[C@@H](O)C[C@@H](O)CC(=O)O [Atorva, atorvastatin]
- Average LDL reduction ([1]; Dose 10 mg): 36%
- Average LDL reduction ([1]; Dose 20 mg): 46%
- Average LDL reduction ([1]; Dose 40 mg): 51%
- Average LDL reduction ([1]; Dose 80 mg): 54%

Structure (SMILES): CC[C@H](C)C(=O)O[C@H]1C[C@H](O)C=C2C=C[C@H](C)[C@H](CC[C@@H](O)C[C@@H](O)CC(=O)O)[C@H]21 [Prava, pravastatin]
- Average LDL reduction ([1]; Dose 10 mg): 19%
- Average LDL reduction ([1]; Dose 20 mg): 24%
- Average LDL reduction ([1]; Dose 40 mg): 34%
- Average LDL reduction ([1]; Dose 80 mg): 40%

Structure (SMILES): CCC(C)(C)C(=O)O[C@H]1C[C@@H](C)C=C2C=C[C@H](C)[C@H](CC[C@@H]3C[C@@H](O)CC(=O)O3)[C@H]21 [Simvastatin, simvastatin]
- Reduction of odds of reaching goal ([2]; for every 10 mg/day in the previous simvastatin dose, simvastatin 20 model): 70%
- OR ([2]; Model 1, Simvastatin 10 mg, per 10 mg/day): 0.130
- OR ([2]; Model 1, Simvastatin 20 mg, per 10 mg/day): 0.355
- OR ([2]; Model 1, Simvastatin 40 mg, per 10 mg/day): 0.771
- OR ([2]; Model 1, Simvastatin 80 mg, per 10 mg/day): 0.900
- OR ([2]; Simvastatin 10 mg [B] model (includes BMI; n = 136), per dose increment): 0.0593
- OR ([2]; Simvastatin 10 mg [C] model (excludes BMI; n = 219), per dose increment): 0.149
- OR ([2]; Simvastatin 20 mg model (n = 374), per dose increment): 0.356
- OR ([2]; Simvastatin 40 mg model (n = 698), per dose increment): 0.788
- OR ([2]; Simvastatin 80 mg model (n = 481), per dose increment): 0.887
- Proportion of patients achieving goal ([3]; Model 1, simvastatin 10 mg, predicted probability 0-19%): 14.3%
- Proportion of patients achieving goal ([3]; Model 1, simvastatin 10 mg, predicted probability 20-39%): 31.8%
- Proportion of patients achieving goal ([3]; Model 1, simvastatin 10 mg, predicted probability 40-59%): 57.6%
- Proportion of patients achieving goal ([3]; Model 1, simvastatin 10 mg, predicted probability 60-79%): 69.7%
- Proportion of patients achieving goal ([3]; Model 1, simvastatin 10 mg, predicted probability 80-100%): 100%
- Proportion of patients achieving goal ([3]; Model 1, simvastatin 20 mg, predicted probability 0-19%): 11.1%
- Proportion of patients achieving goal ([3]; Model 1, simvastatin 20 mg, predicted probability 20-39%): 32.9%
- Proportion of patients achieving goal ([3]; Model 1, simvastatin 20 mg, predicted probability 60-79%): 66.2%
- Proportion of patients achieving goal ([3]; Model 1, simvastatin 40 mg, Overall): 57.0%
- Proportion of patients achieving goal ([3]; Model 1, simvastatin 40 mg, predicted probability 0-19%): 36.4%
- Proportion of patients achieving goal ([3]; Model 1, simvastatin 40 mg, predicted probability 20-39%): 30.4%
- Proportion of patients achieving goal ([3]; Model 1, simvastatin 40 mg, predicted probability 40-59%): 54.2%
- Proportion of patients achieving goal ([3]; Model 1, simvastatin 40 mg, predicted probability 60-79%): 67.2%
- Proportion of patients achieving goal ([3]; Model 1, simvastatin 40 mg, predicted probability 80-100%): 0%
- Proportion of patients achieving goal ([3]; Model 1, simvastatin 80 mg, Overall): 61.9%
- Proportion of patients achieving goal ([3]; Model 1, simvastatin 80 mg, predicted probability 20-39%): 42.7%
- Proportion of patients achieving goal ([3]; Model 1, simvastatin 80 mg, predicted probability 40-59%): 42.7%
- Proportion of patients achieving goal ([3]; Model 1, simvastatin 80 mg, predicted probability 60-79%): 68.9%
- Proportion of patients achieving goal ([3]; Model 1, simvastatin 80 mg, predicted probability 80-100%): 74.3%
- Proportion of patients achieving goal ([3]; Simvastatin 10 mg [A] model, predicted probability 0-19%): 8.3%
- Proportion of patients achieving goal ([3]; Simvastatin 10 mg [A] model, predicted probability 20-39%): 29.7%
- Proportion of patients achieving goal ([3]; Simvastatin 10 mg [A] model, predicted probability 40-59%): 62.1%
- Proportion of patients achieving goal ([3]; Simvastatin 10 mg [A] model, predicted probability 60-79%): 68.6%
- Proportion of patients achieving goal ([3]; Simvastatin 10 mg [A] model, predicted probability 80-100%): 75.0%
- Proportion of patients achieving goal ([3]; Simvastatin 10 mg [B] model, Overall): 52.1%
- Proportion of patients achieving goal ([3]; Simvastatin 10 mg [B] model, predicted probability 0-19%): 10.0%
- Proportion of patients achieving goal ([3]; Simvastatin 10 mg [B] model, predicted probability 20-39%): 26.3%
- Proportion of patients achieving goal ([3]; Simvastatin 10 mg [B] model, predicted probability 40-59%): 58.8%
- Proportion of patients achieving goal ([3]; Simvastatin 10 mg [B] model, predicted probability 60-79%): 70.6%
- Proportion of patients achieving goal ([3]; Simvastatin 10 mg [B] model, predicted probability 80-100%): 100%
- Proportion of patients achieving goal ([3]; Simvastatin 10 mg [C] model, predicted probability 0-19%): 11.8%
- Proportion of patients achieving goal ([3]; Simvastatin 10 mg [C] model, predicted probability 20-39%): 31.8%
- Proportion of patients achieving goal ([3]; Simvastatin 10 mg [C] model, predicted probability 40-59%): 60.0%
- Proportion of patients achieving goal ([3]; Simvastatin 10 mg [C] model, predicted probability 60-79%): 74.2%
- Proportion of patients achieving goal ([3]; Simvastatin 10 mg [C] model, predicted probability 80-100%): 75.0%
- Proportion of patients achieving goal ([3]; Simvastatin 20 mg [C] model, predicted probability 0-19%): 10.5%
- Proportion of patients achieving goal ([3]; Simvastatin 20 mg [C] model, predicted probability 20-39%): 35.1%
- Proportion of patients achieving goal ([3]; Simvastatin 20 mg [C] model, predicted probability 60-79%): 65.3%
- Proportion of patients achieving goal ([3]; Simvastatin 40 mg model, Overall): 57.4%
- Proportion of patients achieving goal ([3]; Simvastatin 40 mg model, predicted probability 0-19%): 20.0%
- Proportion of patients achieving goal ([3]; Simvastatin 40 mg model, predicted probability 20-39%): 38.6%
- Proportion of patients achieving goal ([3]; Simvastatin 40 mg model, predicted probability 40-59%): 54.6%
- Proportion of patients achieving goal ([3]; Simvastatin 40 mg model, predicted probability 60-79%): 67.0%
- Proportion of patients achieving goal ([3]; Simvastatin 40 mg model, predicted probability 80-100%): 65.0%
- Proportion of patients achieving goal ([3]; Simvastatin 80 mg model, Overall): 61.9%
- Proportion of patients achieving goal ([3]; Simvastatin 80 mg model, predicted probability 20-39%): 41.7%
- Proportion of patients achieving goal ([3]; Simvastatin 80 mg model, predicted probability 40-59%): 41.9%
- Proportion of patients achieving goal ([3]; Simvastatin 80 mg model, predicted probability 60-79%): 72.8%
- Proportion of patients achieving goal ([3]; Simvastatin 80 mg model, predicted probability 80-100%): 70.8%
- Chance of success (reaching goal) of any dose choice ([3]; all choices except 80 mg daily): ≤ 60%
- Chance of success (reaching goal) of any dose choice ([3]; all doses): ≤ 62%
